The values that follow are results of earlier work, collected in patent US8957083B2, “Spiro-amino-imidazolone and spiro-amino-dihydro-pyrimidinone compounds as beta-secretase modulators and methods of use” (Amgen Inc., priority 2010, dated 2015).

Data set [1] relates to Aβ in lumbar CSF. Conditions: cited from earlier work.
In data set [2] the test system is pigment epithelium of the rat's eye. Conditions: higher compound dose given for three months; cited from earlier work.
The subject of data set [3] is Aβ. Conditions: orally available; cited from earlier work.

On to `C[C@@]1(c2cc(-c3cncnc3)c(F)cc2F)CCSC(N)=N1` [LY2811376, (S)-4-(2,4-difluoro-5-pyrimidin-5-yl-phenyl)-4-methyl-5,6-dihydro-4H-[1,3]thiazin-2-ylamine], for which the “Aβ reductions in lumbar CSF” value in data set [1] (after oral dosing of 30 or 90 mg) is “Prominent and long-lasting Aβ reductions”. Further, the safety and tolerability entry in data set [1] (healthy volunteers) was “safe and well tolerated”. Also, the retinal toxicity finding entry in data set [2] is on record as “ravaged the pigment epithelium of the rat's eye”. Moreover, the “Aβ-lowering effects in animals” value in data set [3] is listed as “profound Aβ-lowering effects”.
